For orientation: MIC means the least concentration at which growth counts as inhibited.

From ChEMBL document CHEMBL1125753, “Absolute structure-cytotoxic activity relationships of steganacin congeners and analogues” (1991) come the findings set out here.

One test deals with KB. Nature of the test: In vitro effective dose to inhibit KB cell growth from a human epidermoid carcinoma. Particulars: for EC50: Homo sapiens, KB, read-out: ED50 (the source's name). In kind it is functional.
The subject of a further test is Tetrahymena pyriformis. Nature of the test: In vitro minimum inhibition concentration to inhibit the regeneration of cilia in Tetrahymena pyriformis W. In kind it is functional.
Setting [1] is: Tetrahymena pyriformis, read-out: MIC.

Converted amounts (≈) assume the structure as drawn.

For `COc1cc2c(c(OC)c1OC)-c1cc3c(cc1[C@H](O)[C@H]1COC(=O)[C@H]1C2)OCO3`, in the test with KB, the EC50 came out at 16 µg/mL (≈ 38.6 µM). On to `COc1cc2c(c(OC)c1OC)-c1cc3c(cc1[C@@H](O)[C@H]1COC(=O)[C@@H]1C2)OCO3`, for which, in the test on KB, the EC50 is 5 µg/mL (≈ 12.1 µM). For `COc1cc2c(c(OC)c1OC)-c1cc3c(cc1[C@H](C#N)[C@H]1COC(=O)[C@@H]1C2)OCO3`, the EC50 in the test with KB was 1.52 µg/mL (≈ 3.59 µM). In the case of `COc1cc2c(c(OC)c1OC)-c1cc3c(cc1[C@H](O[C@@H]1O[C@@H](CO)[C@@H](O)[C@H](O)[C@@H]1O)[C@H]1COC(=O)[C@@H]1C2)OCO3`, the EC50 in the test with KB is over 100 µg/mL.

`COc1cc2c(c(OC)c1OC)-c1cc3c(cc1[C@H](O[C@@H]1O[C@@H](COC(C)=O)[C@@H](OC(C)=O)[C@H](OC(C)=O)[C@@H]1OC(C)=O)[C@H]1COC(=O)[C@@H]1C2)OCO3`: the EC50 in the test with KB stood at 56 µg/mL (≈ 75.2 µM). Take `COc1cc2c(c(OC)c1OC)-c1cc3c(cc1[C@H](O[C@@H]1O[C@H]4CO[C@@H](c5cccs5)O[C@H]4[C@H](O)[C@@H]1O)[C@H]1COC(=O)[C@@H]1C2)OCO3`: the EC50 in the test on KB is over 100 µg/mL. The same measure, in the same setting: in the case of `COc1cc2c(c(OC)c1OC)-c1cc3c(cc1[C@H](OC(=O)c1ccc(Br)cc1)[C@H]1COC(=O)[C@@H]1C2)OCO3` it was 3.9 µg/mL (≈ 6.53 µM). On the same count and under the same terms, the value for `COc1cc2c(c(OC)c1OC)-c1cc3c(cc1[C@H](O)[C@H]1COC(=O)[C@@H]1C2)OCO3` was 0.53 µg/mL (≈ 1.28 µM); that for `COc1cc2c(c(OC)c1OC)-c1cc3c(cc1[C@H](OCCN(C)C)[C@H]1COC(=O)[C@@H]1C2)OCO3` was 1.5 µg/mL (≈ 3.09 µM); that for `COc1cc2c(c(OC)c1OC)-c1cc3c(cc1C(=O)[C@H]1COC(=O)[C@@H]1C2)OCO3` was 6.2 µg/mL (≈ 15 µM). On to `COc1cc2cc(c1Cl)N(C)C(=O)C[C@H](OC(=O)C(C)C)[C@]1(C)O[C@H]1[C@H](C)[C@@H]1C[C@@](O)(NC(=O)O1)[C@H](OC)/C=C/C=C(\C)C2`, for which, in the test on Tetrahymena pyriformis (setting [1]), the MIC was under 0.5 µg/mL. With `COc1cc(C2c3cc4c(cc3CC3COC(=O)[C@@H]32)OCO4)cc(OC)c1OC` (mixture of isomers), the ED50 with KB was under 0.3 µg/mL. On to `COc1cc2c(c(OC)c1OC)-c1cc3c(cc1C(OC(C)=O)[C@H]1COC(=O)[C@@H]1C2)OCO3` (mixture of isomers), for which the EC50 in the test on KB was found to be 15.7 µg/mL. In addition, the MIC in the test with Tetrahymena pyriformis (setting [1]) was over 20 µg/mL. Consider `COc1cc(C[C@H]2C(=O)OCC2Cc2ccc3c(c2)OCO3)cc(OC)c1OC` (mixture of isomers), for which the EC50 in the test on KB was 16.8 µg/mL. In addition, the minimum inhibitory concentration (MIC) with Tetrahymena pyriformis (setting [1]) was over 20 µg/mL. As for `COc1cc2c(c(OC)c1OC)-c1cc3c(cc1[C@@H](OC(C)=O)C1COC(=O)[C@H]1C2)OCO3` (mixture of isomers) [STEGANACIN], the EC50 in the test with KB was under 0.3 µg/mL. In addition, the MIC with Tetrahymena pyriformis (setting [1]) was over 20 µg/mL. On to `COc1cc2c(c(OC)c1OC)-c1cc3c(cc1C[C@H](CO)[C@@H](CO)C2)OCO3` (racemic), for which the EC50 with KB is 75 µg/mL (≈ 186 µM). Consider `COc1cc2c(c(OC)c1OC)-c1cc3c(cc1C[C@H](COC(C)=O)[C@@H](COC(C)=O)C2)OCO3` (racemic), for which the EC50 in the test with KB was determined as 15 µg/mL (≈ 30.8 µM). For `COc1cc2c(c(OC)c1OC)-c1cc3c(cc1C[C@H]1COC(=O)[C@H]1C2)OCO3` (racemic) [PICROSTEGANE], in the test on KB, the ED50 stood at 28 µg/mL (≈ 70.3 µM). On the same count and under the same terms, the value for `COc1cc2c(c(OC)c1OC)-c1cc3c(cc1C[C@H]1COC(=O)[C@@H]1C2)OCO3` (racemic) [STEGANE] was 0.94 µg/mL (≈ 2.36 µM). The same measure, in the same setting: the value for `COc1cc2c(c(OC)c1OC)-c1cc3c(cc1CC1COC(=O)C1C2)OCO3` (racemic; form 1) was 1.13 µg/mL (≈ 2.84 µM).

As to `COc1cc2c(c(OC)c1OC)-c1cc3c(cc1CC1COC(=O)C1C2)OCO3` (racemic; form 2), the ED50 with KB was under 0.3 µg/mL. Further, the minimum inhibitory concentration (MIC) in the test on Tetrahymena pyriformis (setting [1]) was over 20 µg/mL. The molecule `COc1cc2c(c(OC)c1OC)-c1cc3c(cc1CC1COC(=O)C1C2)OCO3` (racemic; form 3) came in with an ED50 with KB of 1.33 µg/mL (≈ 3.34 µM). Turning to `COc1cc(C2c3cc4c(cc3CC3COC(=O)[C@@H]32)OCO4)cc(OC)c1OC` (stereo in doubt), in the test with KB, the ED50 came to 1.75 µg/mL (≈ 4.39 µM). Also, the MIC in the test on Tetrahymena pyriformis (setting [1]) is over 20 µg/mL. For `COc1cc2c(c(OC)c1OC)-c1cc3c(cc1C[C@@H]1COC(=O)[C@@H]1C2)OCO3` (stereo in doubt; (+)), the ED50 with KB is 4.1 µg/mL (≈ 10.3 µM). The MIC against Tetrahymena pyriformis is over 20 µg/mL.

For the molecule `COc1cc(C[C@@H]2C(=O)OC[C@H]2Cc2ccc3c(c2)OCO3)cc(OC)c1OC` (stereo in doubt; (+)), the EC50 in the test on KB came out at 5.2 µg/mL (≈ 13 µM). For the same molecule, the MIC against Tetrahymena pyriformis was under 20 µg/mL. On to `COc1cc(CC2COCC2Cc2ccc3c(c2)OCO3)cc(OC)c1OC` (stereo in doubt; (+)) [CISBURSERAN], for which the minimum inhibitory concentration (MIC) in the test with Tetrahymena pyriformis turned out to be 20 µg/mL (≈ 51.8 µM). Molecule `COc1cc2c(c(OC)c1OC)-c1cc3c(cc1C[C@H]1COC(=O)[C@H]1C2)OCO3` (stereo in doubt; (+)) [PICROSTEGANE] yielded an ED50 in the test on KB of 32 µg/mL (≈ 80.3 µM). In the test on Tetrahymena pyriformis (setting [1]), the MIC is over 20 µg/mL. `COc1cc2c(c(OC)c1OC)-c1cc3c(cc1C[C@@H]1COC(=O)[C@@H]1C2)OCO3` (stereo in doubt; (-)): in the test on KB, the ED50 is under 0.3 µg/mL. Besides, the MIC in the test with Tetrahymena pyriformis (setting [1]) came to 20 µg/mL (≈ 50.2 µM).

In the case of `COc1cc(C[C@@H]2C(=O)OC[C@H]2Cc2ccc3c(c2)OCO3)cc(OC)c1OC` (stereo in doubt; (-)), the MIC in the test on Tetrahymena pyriformis (setting [1]) is over 20 µg/mL. As for `COc1cc(CC2COCC2Cc2ccc3c(c2)OCO3)cc(OC)c1OC` (stereo in doubt; (-)) [CISBURSERAN], the MIC with Tetrahymena pyriformis (setting [1]) was over 20 µg/mL. The molecule `COc1cc2c(c(OC)c1OC)-c1cc3c(cc1C[C@H]1COC(=O)[C@H]1C2)OCO3` (stereo in doubt; (-)) [PICROSTEGANE] showed an ED50 in the test with KB of 8.8 µg/mL (≈ 22.1 µM). Still for that read-out and setting: the value for `COc1cc2c(c(OC)c1OC)-c1cc3c(cc1[C@@H](OC(C)=O)[C@H]1COC(=O)[C@@H]1C2)OCO3` (stereo in doubt; form 1) was 1.75 µg/mL (≈ 3.83 µM).

Molecule `COc1cc2c(c(OC)c1OC)-c1cc3c(cc1C[C@H]1COC(=O)[C@@H]1C2)OCO3` (stereo in doubt; form 1) [STEGANE] displayed an ED50 with KB of 86 µg/mL (≈ 216 µM). In the test with KB, `COc1cc2c(c(OC)c1OC)-c1cc3c(cc1[C@@H](OC(C)=O)[C@H]1COC(=O)[C@@H]1C2)OCO3` (stereo in doubt; form 2) yielded an ED50 of 61 µg/mL (≈ 134 µM). Further, the minimal inhibitory concentration (MIC) in the test with Tetrahymena pyriformis (setting [1]) is over 20 µg/mL.

For the molecule `COc1cc2c(c(OC)c1OC)-c1cc3c(cc1C[C@H]1COC(=O)[C@@H]1C2)OCO3` (stereo in doubt; form 2) [STEGANE], the ED50 in the test with KB is 0.49 µg/mL (≈ 1.23 µM). In the test with Tetrahymena pyriformis (setting [1]), the MIC is over 20 µg/mL. `COc1cc2c(c(OC)c1OC)-c1cc3c(cc1[C@@H](OC(C)=O)[C@H]1COC(=O)[C@@H]1C2)OCO3` (stereo in doubt; form 3) yielded an ED50 in the test on KB of 16.6 µg/mL (≈ 36.4 µM).

Turning to `COc1cc2c(c(OC)c1OC)-c1cc3c(cc1C[C@H]1COC(=O)[C@@H]1C2)OCO3` (stereo in doubt; form 3) [STEGANE], the ED50 with KB was 94 µg/mL (≈ 236 µM). As for `COc1cc2c(c(OC)c1OC)-c1cc3c(cc1C[C@H]1COC(=O)[C@@H]1C2)OCO3` (stereo in doubt; form 4) [STEGANE], the ED50 in the test with KB came out at 0.47 µg/mL (≈ 1.18 µM).

Turning to `COc1cc2c(c(OC)c1OC)-c1cc3c(cc1[C@H](OC(C)=O)[C@H]1COC(=O)[C@@H]1C2)OCO3` [(-)-STEGANACIN], the EC50 in the test on KB was under 0.3 µg/mL. Also, the MIC with Tetrahymena pyriformis (setting [1]) is over 20 µg/mL. As to `COc1cc2c(c(OC)c1OC)-c1ccc(OC)c(=O)cc1[C@@H](NC(C)=O)CC2` [COLCHICINE], the EC50 in the test on KB is under 0.3 µg/mL. Moreover, the MIC in the test with Tetrahymena pyriformis (setting [1]) was over 20 µg/mL.

For the molecule `COc1cc([C@@H]2c3cc4c(cc3[C@H](O)[C@H]3COC(=O)[C@H]23)OCO4)cc(OC)c1OC` [PODOFILOX], the EC50 in the test with KB was under 0.3 µg/mL. Moreover, in the test with Tetrahymena pyriformis (setting [1]), the MIC is over 20 µg/mL.
